# Patent US20260217732A1, “WRN INHIBITOR” (SUZHOU PUHE BIOPHARMA CO., LTD., priority 2022, published 2026)
# Legend:
# [1] = system: SW48 colorectal cancer cells; assay: 2D antiproliferation on MSI-H SW48 cells, CTG, 5 days; format: cell-based; details: Homo sapiens, 120 h; SW48 MSI-H, 5 days
# Method: The molecules of the present disclosure were tested for their anti-proliferative activity on MSI-H tumor cells.
# SW48 colorectal cancer cells with MSI were cultured in a RMI1640 medium containing 10% FBS and 1% penicillin-streptomycin, and the mixture was cultured in a 37° C., 5% CO2 incubator. 40 μL of cell suspension was added to each well of a 384-well microplate. […] of compounds with different concentrations were added to each well using Echo, and the mixtures were cultured in a 37° C., 5% CO2 incubator for 5 days. 40 μL of CTG solution (Promega, Cat No. G7573) was added to each well and incubated in a 37° C., 5% CO2 incubator in the dark for 30 minutes. The luminescence value was read using an Envision multi-function microplate reader (Perkin Elmer, catalog number Envision 2104). The optical signal is proportional to the amount of ATP in the system, while the ATP content directly characterizes the number of viable cells in the system.
# [2] = system: HT-29 colorectal cancer cells; assay: 2D antiproliferation on MSS HT-29 cells, CTG, 5 days; format: cell-based; details: Homo sapiens, 120 h, HT-29 MSS
# Method: The molecules of the invention were tested for their anti-proliferative activities on MSS tumor cells.
# HT-29 colorectal cancer cells with MSS were cultured in a McCoy's 5A medium containing 10% FBS and 1% penicillin-streptomycin in a 37° C., 5% CO2 constant temperature incubator. 40 μL of cell suspension was added to each well of a 384-well microplate. […] of compounds with different concentrations were added to each well using Echo. The mixtures were cultured in a 37° C., 5% CO2 constant temperature incubator for 5 days. 40 μL of CTG solution (Promega, Cat No. G7573) was added to each well, and the mixture was incubated in a 37° C., 5% CO2 constant temperature incubator for 30 minutes in the dark. The luminescence value was read using an Envision multi-function microplate reader (Perkin Elmer, catalog number Envision 2104). The optical signal is proportional to the amount of ATP in the system, while the ATP content directly characterizes the number of viable cells in the system.
IC50 [1] [nM],IC50 [2] [nM],SMILES
34,,[2H]C1([2H])N(C(=O)c2ncnc(C)c2O)C([2H])([2H])C([2H])([2H])N(c2c(CC)n(CC(=O)Nc3ccc(C(F)(F)F)cc3C)c3nc(-c4cc5c(s4)COC5)nn3c2=O)C1([2H])[2H] [P70]
162,> 10000,CCc1c(N2CCN(C(=O)c3ncnc(C)c3O)CC2)c(=O)n2nc(-c3cc4cn[nH]c4s3)nc2n1CC(=O)Nc1ccc(C(F)(F)F)cc1C [P50]
142,> 10000,CCc1c(N2CCN(C(=O)c3ncnc(C)c3O)CC2)c(=O)n2nc(-c3sc(CO)nc3C)nc2n1CC(=O)Nc1ccc(C(F)(F)F)cc1Cl [P34]
672,,CCc1c(N2CCN(C(=O)c3ncnc(C)c3O)C3(CC3)C2)c(=O)n2nc(-c3cc4c(s3)COC4)nc2n1CC(=O)Nc1ccc(C(F)(F)F)cc1C [P55]
574,,CCc1c(N2CCN(C(=O)c3ncnc(C)c3O)CC2)c(=O)n2nc(-c3cnn(S(C)(=O)=O)c3)nc2n1CC(=O)Nc1ccc(C(F)(F)F)cc1Cl [P49]
28,,[2H]C([2H])([2H])c1ncnc(C(=O)N2CCN(c3c(CC)n(CC(=O)Nc4ccc(C(F)(F)F)cc4Cl)c4nc(-c5cc6c(s5)COC6)nn4c3=O)CC2)c1O [P68]
530,,CCc1c(N2CCN(C(=O)c3ncnc(C)c3O)CC2)c(=O)n2nc(-c3cn4cncc4s3)nc2n1CC(=O)Nc1ccc(C(F)(F)F)cc1C [P64]
2000,,"CCc1c(N2CCN(C(=O)c3ncnc(C)c3O)CC2)c(=O)n2nc(-c3ccc(=O)n(C)c3)nc2n1CC(=O)Nc1ccc(C(F)(F)F)cc1Cl [A3, reference compound]"
46,> 10000,CCc1c(N2CCN(C(=O)c3ncnc(C)c3O)CC2)c(=O)n2nc(-c3ccn4nccc4c3)nc2n1CC(=O)Nc1ccc(C(F)(F)F)cc1Cl [P37]
8850,,CCc1c(N2CCN(C(=O)c3ncnc(C)c3O)CC2)c(=O)n2nc(-c3cc4c(s3)COC4)nc2n1CC(=O)Nc1ccc(-c2cccnc2)cc1Cl [P61]
242,,CCc1c(N2CCN(C(=O)c3ncnc(C)c3O)CC2)c(=O)n2nc(-c3cc4cn[nH]c4s3)nc2n1CC(=O)Nc1ccc(C(F)(F)F)cc1F [P51]
199,> 10000,CCc1c(N2CCN(C(=O)c3ncnc(C)c3O)CC2)c(=O)n2nc(-c3cnc(CO)s3)nc2n1CC(=O)Nc1ccc(C(F)(F)F)cc1Cl [P35]
36,,CCc1c(N2CCN(C(=O)c3ncnc(C)c3O)CC2)c(=O)n2nc(-c3cc4c(s3)COC4)nc2n1CC(=O)Nc1ccc(C(F)(F)F)c2sccc12 [P56]
561,> 10000,CCc1c(N2CCN(C(=O)c3ncnc(C)c3O)CC2)c(=O)n2nc(-c3cnc(CO)s3)nc2n1CC(=O)Nc1ccc(C(F)(F)F)c2ccsc12 [P36]
55,> 10000,CCc1c(N2CCN(C(=O)c3ncnc(C)c3O)[C@H](C)C2)c(=O)n2nc(-c3cc4c(s3)COC4)nc2n1CC(=O)Nc1ccc(C(F)(F)F)cc1C [P53]
32,,CCc1c(N2CCN(C(=O)c3ncnc(C)c3O)CC2)c(=O)n2nc(-c3ccn4nccc4c3)nc2n1CC(=O)Nc1ccc(C(F)(F)F)cc1C [P48]
41,> 10000,CCc1c(N2CCN(C(=O)c3ncnc(C)c3O)CC2)c(=O)n2nc(-c3cc4c(s3)COC4)nc2n1CC(=O)Nc1ccc(Cl)cc1Cl [P26]
49,> 10000,CCc1c(N2CCN(C(=O)c3ncnc(C)c3O)CC2)c(=O)n2nc(-c3cc4c(s3)COC4)nc2n1CC(=O)Nc1cc(F)c(C(F)(F)F)cc1C [P31]
> 10000,> 10000,CCc1c(N2CCN(C(=O)c3ncnc(C)c3O)CC2)c(=O)n2nc(-c3ccc4nncn4c3)nc2n1CC(=O)Nc1ccc(C(F)(F)F)cc1Cl [P39]
2060,> 10000,CCc1c(N2CCN(C(=O)c3ncccc3O)CC2)c(=O)n2nc(C3=CCS(=O)(=O)CC3)nc2n1CC(=O)Nc1ccc(C(F)(F)F)cc1Cl [P6]
593,,CCc1c(N2CCN(C(=O)c3ncnc(C)c3O)CC2)c(=O)n2nc(-c3ncc(CO)s3)nc2n1CC(=O)Nc1ccc(C(F)(F)F)cc1Cl [P43]
848,,CCc1c(N2CCN(C(=O)c3cc(C)ncn3)CC2)c(=O)n2nc(-c3cc4c(s3)COC4)nc2n1CC(=O)Nc1ccc(C(F)(F)F)cc1Cl [A2]
113,,CCc1c(N2CCN(C(=O)c3ncnc(C)c3O)CC2)c(=O)n2nc(-c3cc4c(s3)COCC4)nc2n1CC(=O)Nc1ccc(C(F)(F)F)cc1Cl [P40]

SMILES,IC50 [1] [nM],IC50 [2] [nM]
CCc1c(N2CC3CC(C2)N3C(=O)c2ncnc(C)c2O)c(=O)n2nc(-c3cc4c(s3)COC4)nc2n1CC(=O)Nc1ccc(C(F)(F)F)cc1C [P54],2140,
